We go through eleven compounds from PubChem BioAssay (NCI).

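48-hour exposure; five concentrations; linearly interpolated endpoints. Definition used: TGI = concentration required for complete inhibition of growth.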 Where only a bound is given, the exact number is not on record here.

Holding throughout (test): NCI-60 cell line screen, 48 h
For experiment [1], the system named is 786-0 renal.
Experiment [2] concerns A498 renal.
The test system of experiment [3] is CAKI-1 renal.
Experiment [4] concerns CCRF-CEM leukemia.
Experiment [5] relates to K-562 leukemia.
Experiment [6] deals with MCF7 breast.
Experiment [7] relates to NCI-H226 lung.
In experiment [8] the test system is NCI-H460 lung.
Experiment [9] has as its system NCI-H522 lung.
In experiment [10] the test system is OVCAR-5 ovarian.
Experiment [11] has as its system PC-3 prostate.
The subject of experiment [12] is SF-268 CNS.
Experiment [13] has as its system SF-295 CNS.
The test system of experiment [14] is SF-539 CNS.
Experiment [15] concerns SK-MEL-28 melanoma.
Experiment [16] deals with SNB-19 CNS.
For experiment [17], the system named is SR leukemia.
For experiment [18], the system named is T-47D breast.
Experiment [19] deals with UACC-62 melanoma.
For experiment [20], the system named is UO-31 renal.

As for `Brc1ccc2c(-c3nc(-c4c[nH]c5ccc(Br)cc45)cs3)c[nH]c2c1`, the TGI in [1] is 6.33 µM; in [2] it was 11.8 µM; in [3], 14.5 µM; in [4] it was > 27.7 µM; in experiment [5], > 22.3 µM; in [6], 13.9 µM. In addition, the TGI amounted to 5.37 µM in experiment [7]; 8.36 µM in [8]; 4.85 µM in experiment [9]; 10.4 µM in [10]; 17.9 µM in experiment [11]; 17.7 µM in experiment [12]. Further, the TGI turned out to be 17.8 µM in experiment [13]; 18.1 µM in experiment [14]; 28.7 µM in [15]; 13 µM in [16]; 13 µM in experiment [17]; 31.9 µM in experiment [18]. The TGI in experiment [19] was > 48.4 µM; in [20], 13.7 µM.
In the case of `NC(N)=N/N=C/c1c(Cl)nc2sccn12`, the TGI in experiment [1] is 32.7 µM; in [2], > 100 µM; in experiment [3], > 100 µM; in [4], 73 µM; in experiment [5], 87.4 µM; in experiment [6], 73.6 µM. Also, the TGI in [7] was 66.9 µM; in [8], 30.3 µM; in [9] it was 84 µM; in [10], 80.9 µM; in [11] it was > 100 µM; in experiment [12] it was > 100 µM. Moreover, the TGI is 44.1 µM in [13]; 37.8 µM in experiment [14]; > 100 µM in [15]; > 100 µM in experiment [16]; 54 µM in [17]; > 100 µM in experiment [18]. Also, the TGI in experiment [19] and in experiment [20] was > 100 µM throughout.
As to `CCCN=C(NC(=O)c1ccc(Cl)cc1)SC`, the TGI was > 100 µM in experiment [1]; 99.8 µM in [2]; > 100 µM in experiment [3]; > 100 µM in [4]; > 100 µM in experiment [5]; > 100 µM in experiment [6]. In addition, the TGI in experiment [7], in experiment [8], in [9], in experiment [10], in [11] and in experiment [12] was > 100 µM each time. Further, the TGI in experiment [13], in [14], in experiment [15], in experiment [16], in experiment [17] and in experiment [18] was > 100 µM throughout. Also, the TGI in experiment [19] is > 100 µM; in experiment [20], 46.4 µM.
Turning to `Cc1ccc2nc3ccccc3c(C3C4C(=O)N(c5ccc(Br)cc5Cl)C(=O)C4ON3C(C(N)=O)c3ccccc3)c2c1` (stereo not given), the TGI is > 25 µM in experiment [1]; > 25 µM in experiment [2]; 10.5 µM in [3]; > 25 µM in experiment [4]; > 25 µM in experiment [5]; > 25 µM in [6]. For the same compound, the TGI in experiment [7], in [8], in experiment [9], in experiment [10], in [11] and in [12] was > 25 µM in each case. Further, the TGI in experiment [13], in [14], in experiment [15], in [16], in experiment [17] and in experiment [18] was > 25 µM each time. Further, the figures for the TGI in [19] and in [20] were > 25 µM and 12.9 µM, respectively.
For `C=C(C)[C@@H](C(=O)OC)N1C(=O)c2ccccc2C1=O`, the TGI in [1], in experiment [2], in experiment [3], in experiment [4], in [5] and in experiment [6] was > 100 µM in each case. Further, the TGI in experiment [7], in [8], in experiment [9], in [10], in experiment [11] and in [12] was > 100 µM each time. Moreover, the TGI in [13], in [14], in experiment [15], in [16], in [17] and in experiment [18] was > 100 µM each time. The TGI in [19] and in [20] was > 100 µM in each case.
With `CC/C(=N/O)c1ccc(Br)s1`, the TGI is > 100 µM in [1]; > 100 µM in [2]; > 100 µM in experiment [3]; 97.1 µM in [4]; > 100 µM in [5]; > 100 µM in experiment [6]. In addition, the TGI in experiment [7], in experiment [8], in [9], in experiment [10], in [11] and in experiment [12] was > 100 µM in each case. Besides, the TGI in [13], in [14], in experiment [15], in experiment [16], in experiment [17] and in experiment [18] was > 100 µM throughout. The TGI in [19] and in experiment [20] was > 100 µM in each case.
As to `CCCN(CCCCC(NC(C)=O)C(=O)NCc1ccccc1)C(=O)N(CCCl)N=O` (stereo not given), the TGI was > 89.4 µM in experiment [1]; > 100 µM in experiment [2]; > 100 µM in experiment [3]; > 100 µM in [4]; > 100 µM in experiment [5]; > 100 µM in experiment [6]. In addition, the TGI is > 100 µM in [7]; > 56.2 µM in experiment [8]; > 100 µM in [9]; > 100 µM in experiment [10]; > 100 µM in experiment [11]; > 100 µM in experiment [12]. Also, the TGI in experiment [13] is > 100 µM; in experiment [14], 41.1 µM; in [15], > 100 µM; in experiment [16], > 100 µM; in experiment [17] it was > 100 µM; in experiment [18], > 100 µM. Also, the TGI in experiment [19] and in experiment [20] was > 100 µM throughout.
As to `O=C(CNc1ccc(Cl)cc1)Nn1c(-c2ccccc2)nc2ccccc2c1=O`, the TGI in experiment [1] is 10.2 µM; in experiment [2], 29.7 µM; in [3], 23.6 µM; in experiment [4] it was 9.48 µM; in [5], 14.3 µM; in experiment [6] it was 8.06 µM. Also, the TGI in experiment [7] is 25.2 µM; in [8] it was 23.4 µM; in experiment [9], 11.5 µM; in [10] it was 28.2 µM; in [11], 25.4 µM; in experiment [12] it was 26.9 µM. The TGI is 29.8 µM in experiment [13]; 14.9 µM in [14]; 19.8 µM in experiment [15]; 24.5 µM in [16]; > 52.1 µM in experiment [17]; 32.6 µM in experiment [18]. Moreover, the TGI in [19] is 10.9 µM; in experiment [20] it was 20.4 µM.
For the compound `C[N+](C)(N)CCC[N+](C)(C)N`, the TGI in [1], in experiment [2], in [3], in [4], in [5] and in experiment [6] was > 100 µM in each case. For the same compound, the TGI in experiment [7], in [8], in [9], in experiment [10], in [11] and in [12] was > 100 µM each time. Moreover, the TGI in [13], in experiment [14], in experiment [15], in experiment [16], in experiment [17] and in [18] was > 100 µM each time. Moreover, the TGI in [19] and in [20] was > 100 µM each time.
As to `N#Cc1nc(COCCOCc2ccccc2)oc1N`, the TGI in experiment [1], in experiment [2], in [3], in [4], in experiment [5] and in experiment [6] was > 100 µM each time. Also, the TGI in [7], in experiment [8], in experiment [9], in experiment [10], in experiment [11] and in experiment [12] was > 100 µM throughout. Moreover, the TGI in [13], in [14], in experiment [15], in experiment [16], in [17] and in experiment [18] was > 100 µM each time. Further, the TGI in [19] and in [20] was > 100 µM in each case.
For `Cc1cccc2c(N)c3cccc(C(=O)NCCCNCCN)c3nc12`, the TGI was 11.4 µM in experiment [1]; 30.1 µM in [2]; 26.3 µM in experiment [3]; > 70.4 µM in experiment [4]; > 100 µM in experiment [5]; 11 µM in [6]. For the same compound, the TGI in [7] is 9.15 µM; in experiment [8], 11.6 µM; in experiment [9] it was 0.0786 µM; in experiment [10] it was 38.4 µM; in [11], 35.3 µM; in experiment [12], 3.19 µM. In addition, the TGI in [13] is 20.9 µM; in [14], 9.93 µM; in experiment [15], 29.4 µM; in experiment [16], 15 µM; in experiment [17] it was > 82.9 µM; in experiment [18], 24.8 µM. The TGI in experiment [19] was 19 µM; in experiment [20], 46.8 µM.
